According to patent US20260083708A1, “IL-17 MODULATORS AND USES THEREOF” (NNOCARE PHARMA INC., priority 2024, published 2026):

Columns and labels:
IL-17AA and IL-17RA = target: T1, IL-17AA and IL-17RA (Homo sapiens, UniProt Q16552); test: Competitive inhibition of human IL-17AA and IL-17RA binding (HTRF); details: recombinant IL-17AA (His-tag) and IL-17RA (hFc-tag); read-out: IC50 for Inhibiting IL-AA/IL-RA Binding
T1 construct: purchased Sino Biological 12047-H07B (IL-17AA); 10895-H02H (IL-17RA)
T1 sequence (Q16552 24-155): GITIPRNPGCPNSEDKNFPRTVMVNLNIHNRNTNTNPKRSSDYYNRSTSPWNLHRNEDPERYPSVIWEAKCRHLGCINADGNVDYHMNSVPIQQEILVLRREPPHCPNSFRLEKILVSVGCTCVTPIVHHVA
Experimental: Example 42. Competitive Inhibition of Human IL-17AA and IL-17RA Binding
Recombinant IL-17AA (His-tag, Catalog Number 12047-H07B) and IL-17RA (hFc-tag, Catalog Number 10895-H02H) were purchased from Sino Biological. In the experiment, 10 μL of IL-17AA (1 nM) or IL-17RA (1 nM) was added to 10 μL of anti-6His-Tb (0.4 nM, Revvity, Catalog Number 61HISTLF) or anti-human IgG-d2 (1 μg/mL, anti-human IgG-d2, Revvity, Catalog Number 61HFCDAF), respectively and incubated at room temperature for 1 hour. Compounds were serially diluted starting from 10 μM. 5 μL of each compound solution was incubated with 5 μL of a mixture of IL-17AA and anti-6His-Tb at room temperature for 2 hours. After pre-incubation, to which was added 10 μL of a mixture of IL-17RA and anti-human IgG-d2, and incubation was continued for additional 20 minutes. Subsequently, a microplate reader (Envision, PerkinElmer) was used to detect fluorescence intensity at 615 nm and 665 nm, and the ratio of intensity thereof indicates the degree of IL-17AA and IL-17RA interaction. The ratio of intensity in the absence of tested compound was the highest value of binding between IL-17AA and IL-17RA, and the ratio of intensity in the absence of IL-17AA was the lowest value.
(§1) Therefore, the percentage of inhibition of tested compound was calculated as
Experimental results were analyzed using XLfit (IDBS) for 4-parameter nonlinear fitting analysis, to provide the IC50 value for each tested compound (Table 1).

[1] = system: IL-17AF-induced IL-17 signaling pathway; test: Inhibition of IL-17AF-induced IL-17 signaling pathway; type: cell-based; details: Homo sapiens; IL-17AF used instead of IL-17AA; read-out: IC50 for Inhibiting IL-AF Signaling
Excerpt: (§2) Interleukin-17 (IL-17) reporter cell line (HEK-Blue IL-17, InvivoGen, Catalog Number hkb-i117) is created by genetically engineering human IL-17RA/IL-17RC heterodimeric receptor and downstream adapter protein ACT1 into human embryonic kidney 293 cells (HEK293). These cells also express secreted embryonic alkaline phosphatase (SEAP) reporter gene induced by NF-κB and AP-1. Therefore, IL-17AA can activate NF-κB and AP-1 signaling pathways inside the cells by binding to IL-17RA/RC on cell membrane, leading to expression of SEAP protein. After a colorimetric reaction between SEAP protein and Quanti-Blue solution, the absorbance at 620 nm is measured using a microplate reader (BioTek H1M, Agilent, Catalog Number SH1M-SN) to determine IL-17AA-activated signaling pathway.
(§3) In the experiment, HEK-Blue IL-17 cells were cultured at 37° C. under 5% CO2 conditions using the recommended medium from InvivoGen's instruction. Compounds were serially diluted starting from 10 μM. 4 μL of each compound solution was added to 32 μL of cells (10,000 cells) at 37° C. for 1 hour. After pre-incubation, 4 μL of IL-17AA with a final concentration of 2.5 ng/mL (Sino Biological, Catalog Number 12047-HNAS) was added to the cells, and incubation was continued for additional 20 hours. After incubation, 5 μL of cell culture supernatant was added to 45 μL of Quanti-Blue for the colorimetric reaction. The group without tested compound had the highest absorbance at 620 nm, and the group without IL-17AA had the lowest absorbance at 620 nm.
as §1
(§4) Experimental results were analyzed using XLfit (IDBS) for 4-parameter nonlinear fitting analysis to provide the IC50 value for each tested compound (Table 1).
Example 44. Inhibition of IL-17AF-Induced IL-17 Signaling Pathway
The same experimental procedure to Example […] was followed where IL-17AF was used instead of IL-17AA.

[2] = system: IL-17AA-induced IL-17 signaling pathway; test: Inhibition of IL-17AA-induced IL-17 signaling pathway in HEK-Blue IL-17 reporter cells (SEAP); type: cell-based; details: Homo sapiens; HEK-Blue IL-17 cells, IL-17AA 2.5 ng/mL, 20 hours; read-out: IC50 for Inhibiting IL-AA Signaling
Excerpt: Example 43. Inhibition of IL-17AA-Induced IL-17 Signaling Pathway
as §2, §3, §1, §4

Row | Compound | IC50 (IL-17AA and IL-17RA) [nM] | IC50 [1] [nM] | IC50 [2] [nM]
1 | CCc1nonc1C(=O)N[C@H](C(=O)Nc1ccc([C@H](C)[C@@H](NC(=O)COC)c2ncnn2CC2CC2)cc1F)C(C1CC1)C1CC1 [Compound 34, N-((S)-1,1-dicyclopropyl-3-((4-((1R,2S)-1-(1-(cyclopropylmethyl)-1H-1,2,4-triazol-5-yl)-1-(2-methoxyacetamido)propan-2-yl)-2-fluorophenyl)amino)-3-oxopropan-2-yl)-4-ethyl-1,2,5-oxadiazole-3-carboxamide] | 2.6 | 3.2 | 2.2
2 | COCC(=O)N[C@@H](c1nncn1CC1CC1)[C@@H](C)c1ccc(NC(=O)[C@@H](NC(=O)COCC2CC2)C(C2CC2)C2CC2)c(F)c1 [Compound 15, (S)-3,3-dicyclopropyl-2-(2-(cyclopropylmethoxy)acetamido)-N-(4-((1R,2S)-1-(4-(cyclopropylmethyl)-4H-1,2,4-triazol-3-yl)-1-(2-methoxyacetamido)propan-2-yl)-2-fluorophenyl)propanamide] | 172 | 2130 | 1120
3 | CCC(=O)N[C@@H](c1ncnn1CCNC1CC1)[C@@H](C)c1ccc(NC(=O)[C@@H](NC(=O)c2nonc2C)C(C2CC2)C2CC2)c(F)c1 [Compound 79, N-((S)-1,1-dicyclopropyl-3-((4-((1R,2S)-1-(1-(2-(cyclopropylamino)ethyl)-1H-1,2,4-triazol-5-yl)-1-propionamidopropan-2-yl)-2-fluorophenyl)amino)-3-oxopropan-2-yl)-4-methyl-1,2,5-oxadiazole-3-carboxamide] | 6 | 36 | 19
4 | CCCn1ncnc1[C@H](NC(=O)COC)[C@@H](C)c1ccc(NC(=O)[C@@H](NC(=O)c2ccnn2CC)C(C2CC2)C2CC2)c(F)c1 [Compound 31, N-((S)-1,1-dicyclopropyl-3-((2-fluoro-4-((1R,2S)-1-(2-methoxyacetamido)-1-(1-propyl-1H-1,2,4-triazol-5-yl)propan-2-yl)phenyl)amino)-3-oxopropan-2-yl)-1-ethyl-1H-pyrazole-5-carboxamide] | 11 | 13 | 6.9
5 | CCn1nccc1C(=O)N[C@H](C(=O)Nc1ccc([C@H](C)[C@@H](NC(=O)COC)c2ncnn2CCN2CCN(C)CC2)cc1F)C(C1CC1)C1CC1 [Compound 52, N-((S)-1,1-dicyclopropyl-3-((2-fluoro-4-((1R,2S)-1-(2-methoxyacetamido)-1-(1-(2-(4-methylpiperazin-1-yl)ethyl)-1H-1,2,4-triazol-5-yl)propan-2-yl)phenyl)amino)-3-oxopropan-2-yl)-1-ethyl-1H-pyrazole-5-carboxamide] | 182 | 2730 | 2220
6 | CCn1nccc1C(=O)N[C@H](C(=O)Nc1ncc([C@H](C)[C@@H](NC(=O)COC)c2ncnn2CC2CC2)cc1F)C(C1CC1)C1CC1 [Compound 46, N-((S)-1,1-dicyclopropyl-3-((5-((1R,2S)-1-(1-(cyclopropylmethyl)-1H-1,2,4-triazol-5-yl)-1-(2-methoxyacetamido)propan-2-yl)-3-fluoropyridin-2-yl)amino)-3-oxopropan-2-yl)-1-ethyl-1H-pyrazole-5-carboxamide] | 29 | 159 | 124
7 | CCc1nonc1C(=O)N[C@H](C(=O)Nc1ccc([C@H](C)[C@@H](NC(=O)COC)c2nncn2CC2CC2)cc1F)C(C1CC1)C1CC1 [Compound 14, N-((S)-1,1-dicyclopropyl-3-((4-((1R,2S)-1-(4-(cyclopropylmethyl)-4H-1,2,4-triazol-3-yl)-1-(2-methoxyacetamido)propan-2-yl)-2-fluorophenyl)amino)-3-oxopropan-2-yl)-4-ethyl-1,2,5-oxadiazole-3-carboxamide] | 2.9 | 9 | 2.3
8 | CCc1nonc1C(=O)N[C@H](C(=O)Nc1ccc([C@H](C)[C@@H](NC(=O)[C@H](C)OC)c2nncn2CC2CC2)cc1F)C(C1CC1)C1CC1 [Compound 26, N-((S)-1,1-dicyclopropyl-3-((4-((1R,2S)-1-(4-(cyclopropylmethyl)-4H-1,2,4-triazol-3-yl)-1-((S)-2-methoxypropanamido)propan-2-yl)-2-fluorophenyl)amino)-3-oxopropan-2-yl)-4-ethyl-1,2,5-oxadiazole-3-carboxamide] | 0.8 | 4.5 | 2

The next lines start with the values.

Row | IC50 (IL-17AA and IL-17RA) [nM] | IC50 [1] [nM] | IC50 [2] [nM] | Compound
9 | 153 | 1210 | 194 | CCn1nccc1C(=O)N[C@H](C(=O)Nc1ccc([C@H](C)[C@@H](NC(=O)COC)c2ncnn2CC2CC2)cc1OC)C(C1CC1)C1CC1 [Compound 45, N-((S)-1,1-dicyclopropyl-3-((4-((1R,2S)-1-(1-(cyclopropylmethyl)-1H-1,2,4-triazol-5-yl)-1-(2-methoxyacetamido)propan-2-yl)-2-methoxyphenyl)amino)-3-oxopropan-2-yl)-1-ethyl-1H-pyrazole-5-carboxamide]
10 | 50 | 211 | 178 | CCn1nccc1C(=O)N[C@H](C(=O)Nc1ccc([C@H](C)[C@@H](NC(=O)CN2CCC2)c2ncnn2CC2CC2)cc1F)C(C1CC1)C1CC1 [Compound 51, N-((S)-1-((4-((1R,2S)-1-(2-(azetidin-1-yl)acetamido)-1-(1-(cyclopropylmethyl)-1H-1,2,4-triazol-5-yl)propan-2-yl)-2-fluorophenyl)amino)-3,3-dicyclopropyl-1-oxopropan-2-yl)-1-ethyl-1H-pyrazole-5-carboxamide]
11 | 28 | 87 | 93 | CCn1nccc1C(=O)N[C@H](C(=O)Nc1ccc([C@H](C)[C@@H](NC(=O)CO)c2ncnn2CC2CC2)cc1F)C(C1CC1)C1CC1 [Compound 49, N-((S)-1,1-dicyclopropyl-3-((4-((1R,2S)-1-(1-(cyclopropylmethyl)-1H-1,2,4-triazol-5-yl)-1-(2-hydroxyacetamido)propan-2-yl)-2-fluorophenyl)amino)-3-oxopropan-2-yl)-1-ethyl-1H-pyrazole-5-carboxamide]
12 | 9.4 | 27 | 16 | [2H]C([2H])([2H])n1nccc1C(=O)N[C@H](C(=O)Nc1ccc([C@H](C)[C@@H](NC(=O)CC)c2ncn(CC3CC3)n2)cc1F)C(C1CC1)C1CC1 [Compound 43, N-((S)-1,1-dicyclopropyl-3-((4-((1R,2S)-1-(1-(cyclopropylmethyl)-1H-1,2,4-triazol-3-yl)-1-propionamidopropan-2-yl)-2-fluorophenyl)amino)-3-oxopropan-2-yl)-1-(methyl-d3)-1H-pyrazole-5-carboxamide]
13 | 5.3 | 13 | 9.6 | [2H]C([2H])([2H])OCC(=O)N[C@@H](c1ncnn1CC1CC1)[C@@H](C)c1ccc(NC(=O)[C@@H](NC(=O)c2ccnn2C([2H])([2H])[2H])C(C2CC2)C2CC2)c(F)c1 [Compound 71, N-((S)-1,1-dicyclopropyl-3-((4-((1R,2S)-1-(1-(cyclopropylmethyl)-1H-1,2,4-triazol-5-yl)-1-(2-(methoxy-d3)acetamido)propan-2-yl)-2-fluorophenyl)amino)-3-oxopropan-2-yl)-1-(methyl-d3)-1H-pyrazole-5-carboxamide]
